US20240109925A1, “Enhanced Anti-Proliferative and Antitumor Immune Effects of Mitochondria-Targeted Hydroxyurea” (The Medical College of Wisconsin, Inc., priority 2021, published 2024)
Like-named read-outs stand apart in the source and are kept apart here.

Columns and labels:
[1] = molecular target: T1, mitochondrial complex III (Homo sapiens, UniProt P00156+P47985); assay: Complex III-dependent oxygen consumption (OCR), Seahorse XF-96, HCT116 cells; assay type: cell-based
T1 construct: other: mean ± SD; HCT116, 24 hr treatment; Complex III activity (OCR, % of control); other: 0.1 μM, 24 hr, HCT116; n = 4; other: 0.5 μM, 24 hr, HCT116; other: 0.75 μM, 24 hr, HCT116; other: 1 μM, 24 hr, HCT116; Compl
Procedure: (§1) FIG. 2. Effects of HU and Mito-HUs on the oxygen consumption by mitochondrial complexes I and III (A) Dose-dependent effects of HU, Mito10-HU, Mito12-HU, Mito14-HU, Mito16-HU, and Mito20-HU on complex I- and complex III-dependent oxygen consumption were measured in HCT116 cells. HCT116 cells were treated with HU or Mito-HUs as indicated for 24 hr. Mitochondrial complex I activity (left) and complex III activity (right) were monitored by a Seahorse XF-96 analyzer. Either rotenone (complex I inhibitor) or antimycin A (complex III inhibitor) was acutely added and OCR assayed immediately. (B) The mitochondrial complex I (left) and III (right) dependent oxygen consumption (calculated as rotenone or antimycin A inhibitable OCR) are plotted against concentration of HU and Mito-HUs. Dashed lines represent the fitting curves used for determination of the IC50 values. Data shown are the means G SD.
(§2) Mitochondrial oxygen consumption was measured using the Seahorse XF-96 Extracellular Flux Analyzer (Agilent, North Billerica, MA) (Cheng et al., 2013, 2016; Boyle et al., 2018; Weinberg and Chandel, 2015). After cells were treated with HU or Mito-HUs for 24 hr, the OCR-based assessment of mitochondrial complex activities was carried out on acutely permeabilized cells in the presence of different mitochondrial substrates, i.e., pyruvate/malate for complex I and duroquinol for complex III (Cheng et al., 2016, 2019; Salabei et al., 2014; Wheaton et al., 2014). Rotenone, malonate, and antimycin A (Sigma-Aldrich, St. Louis, MO) were used as specific inhibitors of mitochondrial complexes I, II, and III, respectively. Briefly, cells that were intact after treatments were immediately permeabilized using the Seahorse XF Plasma Membrane Permeabilizer (Agilent). The mitochondrial complex I-induced OCR was assayed in mannitol and sucrose buffer (Salabei et al., 2014) containing 10 mM pyruvate and 1.5 mM malate (substrates for complex I) and 10 mM malonate (which inhibits complex II activities). The mitochondrial complex III-driven OCR was assayed in a mannitol and sucrose buffer containing 0.5 mM duroquinol (substrate for complex III) as well as […] and 10 mM malonate (which inhibit both complex I and II activities). The IC50 values were determined as previously reported (Cheng et al., 2019).

[2] = system: mitochondrial complex III; assay: as above; assay type: cell-based, human; conditions: 24 hr, HCT116, n = 4
Procedure: as §1, §2

[3] = system: MiaPaCa-2 human pancreatic cancer cells; assay: Cell proliferation, IncuCyte Live-Cell Analysis system; assay type: cell-based
From the text: FIG. 7. Effects of HU and Mito10-HU on proliferation of MiaPaCa-2 human pancreatic cancer cells; MiaPaCa-2 cells treated with HU or Mito10-HU were monitored in the IncuCyte Live-Cell Analysis system. Cell proliferation was monitored in real-time with the continuous presence of indicated treatments until the end of each experiment. Data shown are the means±SD.
(§3) The following cell lines were obtained from the American Type Culture Collection (Manassas, VA), where they were regularly authenticated: HCT116 (ATCC Cat #CRL-247, human colon cancer cells) and MiaPaCa-2 (ATCC Cat #CRL-1420, human pancreatic cancer cells). All cells were cultured in a humidified incubator at 37° C. and 5% carbon dioxide. HCT116 cells were maintained in RPMI 1640 medium (Thermo Fisher Scientific, Cat #11875), supplemented with 10% fetal bovine serum. MiaPaCa-2 cells were maintained in Dulbecco's Modified Eagle Medium (Thermo Fisher Scientific, Waltham, MA; Cat #11965) supplemented with 10% fetal bovine serum. All cells were stored in liquid nitrogen and used within 20 passages after thawing.
(§4) The IncuCyte Live-Cell Analysis system (Essen Bioscience Inc., Ann Arbor, MI) was used to monitor cell proliferation (Cheng et al., 2013, 2016; Boyle et al., 2018). As shown in previous publications (Cheng et al., 2013, 2016), this imaging system is probe-free and noninvasive, and enables continuous monitoring of cell confluence over several days. The increase in the percentage of cell confluence was used as a surrogate marker of cell proliferation. In a 96-well plate, cells were plated at 1,000 cells per well in triplicates and left to adhere overnight. Cells were then treated with HU and Mito-HUs, and the cell confluency was recorded over several days in the IncuCyte Live-Cell Analysis system.

[4] = system: HCT116 human colon cancer cells; assay: Cell proliferation (cell confluence), IncuCyte Live-Cell Analysis system; assay type: cell-based; conditions: for IC50: Homo sapiens, HCT-116, at ~90% confluence of control; for inhibition of proliferation of HCT116 cells / IC50: HCT116; for Cell Confluence (%): when control cells reached ~90% confluence, n = 4
From the text: FIG. 1. Effects of HU and Mito-HUs on proliferation of HCT116 human colon cancer cells (A) Effects of HU and Mito-HUs on the proliferation of HCT116 cells were monitored in the IncuCyte Live-Cell Analysis system. The IncuCyte Analyzer provides real-time updates on cell confluence, based on segmentation of high definition-phase contrast images. Representative cell images were shown as segmentation mask illustrated in brown when control cells reached 90% confluence (vertical solid black line). (B) The IC50 values were determined at the point at which control cells reached ˜90% confluence (vertical solid black line). Relative cell confluence (control is taken as 100%) is plotted against concentration. Dashed lines represent the fitting curves used to determine the IC50 values as indicated. Data shown are the means & SD.
as §3, §4

[5] = molecular target: mitochondrial complex I (Homo sapiens, UniProt O75251+O75306+P03886); assay: Complex I-dependent oxygen consumption (OCR), Seahorse XF-96, HCT116 cells; assay type: cell-based
Procedure: as §1, §2

[6] = mean ± SD; HCT116, 24 hr treatment; read-out: IC50 Complex III (FIG. 2)
[7] = read-out: IC50 proliferation of HCT116 cells
[8] = mean ± SD, read-out: IC50 Cell Proliferation (FIG. 1)
[9] = mean ± SD; HCT116, 24 hr treatment; read-out: IC50 Complex I (FIG. 2)

## NC(=O)NOCCCCCCCCCCCC[P+](c1ccccc1)(c1ccccc1)c1ccccc1.O=C([O-])C(F)(F)F [Mito12-HU, 12-[(carbamoylamino)oxy]-dodecyltriphenylphosphonium trifluoroacetate]
[1]; HCT116, 24 hr
  effect on complex III-induced oxygen consumption: potently inhibited
[1]; [6]
  IC50: 3.1 ± 0.18 µM
[2]; 1.5 μM
  Complex III activity (OCR, % of control): 74.02 % of control
[2]; 2 μM
  Complex III activity (OCR, % of control): 55.15 % of control
[2]; 2.5 μM
  Complex III activity (OCR, % of control): 51.26 % of control
[2]; 4 μM
  Complex III activity (OCR, % of control): 35.02 % of control
[2]; 7.5 μM
  Complex III activity (OCR, % of control): 24.56 % of control
[3]
  inhibition of proliferation of MiaPaCa-2 cells: increasing antiproliferative potencies
[4]
  inhibition of proliferation of HCT116 cells: dose-dependently inhibited proliferation
[4]; [7]
  IC50: 1800 nM
[4]; [8]
  IC50: 1800 ± 50 nM
[5]; HCT116, 24 hr
  effect on complex I-induced oxygen consumption: potently inhibited
[5]; [9]
  IC50: 1.6 ± 0.16 µM

## NC(=O)NOCCCCCCCCCCCCCC[P+](c1ccccc1)(c1ccccc1)c1ccccc1.O=C([O-])C(F)(F)F [Mito14-HU, 14-[(carbamoylamino)oxy]-tetradecyltriphenylphosphonium trifluoroacetate]
[1]; HCT116, 24 hr
  effect on complex III-induced oxygen consumption: potently inhibited
[1]; [6]
  IC50: 1.7 ± 0.69 µM
[4]
  inhibition of proliferation of HCT116 cells: dose-dependently inhibited proliferation
[4]; [7]
  IC50: 740 nM
[4]; [8]
  IC50: 900 ± 40 nM
[5]; HCT116, 24 hr
  effect on complex I-induced oxygen consumption: potently inhibited
[5]; [9]
  IC50: 1 ± 0.12 µM

## NC(=O)NO [HU, Hydroxyurea]
[1]; HCT116, 24 hr
  effect on complex III-induced oxygen consumption: no apparent effects
[1]; HCT-116; 10 μM, 24 hr, HCT116; n = 4; read-out: Complex III activity (OCR, % of control)
  remaining activity at 10 µM: 94.1%
[1]; HCT-116; 30 μM, 24 hr, HCT116; n = 4; read-out: Complex III activity (OCR, % of control)
  remaining activity at 30 µM: 81.2%
[1]; HCT-116; 100 μM, 24 hr, HCT116; n = 4; read-out: Complex III activity (OCR, % of control)
  remaining activity at 100 µM: 94.6%
[1]; HCT-116; 150 μM, 24 hr, HCT116; n = 4; read-out: Complex III activity (OCR, % of control)
  remaining activity at 150 µM: 92.2%
[1]; HCT-116; 200 μM, 24 hr, HCT116; n = 4; read-out: Complex III activity (OCR, % of control)
  remaining activity at 200 µM: 82.7%
[1]; HCT-116; 250 μM, 24 hr, HCT116; n = 4; read-out: Complex III activity (OCR, % of control)
  remaining activity at 250 µM: 89.1%
[1]; HCT-116; 300 μM, 24 hr, HCT116; n = 4; read-out: Complex III activity (OCR, % of control)
  remaining activity at 300 µM: 88.7%
[1]; HCT-116; 400 μM, 24 hr, HCT116; n = 4; read-out: Complex III activity (OCR, % of control)
  remaining activity at 400 µM: 86.8%
[1]; HCT-116; 500 μM, 24 hr, HCT116; n = 4; read-out: Complex III activity (OCR, % of control)
  remaining activity at 500 µM: 88.9%
[1]; HCT-116; 1000 μM, 24 hr, HCT116; n = 4; read-out: Complex III activity (OCR, % of control)
  remaining activity at 1000 µM: 93.1%
[1]; HCT-116; 3000 μM, 24 hr, HCT116; n = 4; read-out: Complex III activity (OCR, % of control)
  remaining activity at 3000 µM: 94.4%
[1]; read-out: IC50 Complex III (FIG. 2); mean ± SD; HCT116, 24 hr treatment
  IC50: > 3000 µM
[4]; 10 μM
  Cell Confluence (%): 89.91%
[4]; 30 μM
  Cell Confluence (%): 91.61%
[4]; 100 μM
  Cell Confluence (%): 66.96%
[4]; 150 μM
  Cell Confluence (%): 48.62%
[4]; 200 μM
  Cell Confluence (%): 31.90%
[4]; 250 μM
  Cell Confluence (%): 22.99%
[4]; 300 μM
  Cell Confluence (%): 17.30%
[4]; 400 μM
  Cell Confluence (%): 11.42%
[4]; 500 μM
  Cell Confluence (%): 8.79%
[4]; 1000 μM
  Cell Confluence (%): 5.40%
[4]; 3000 μM
  Cell Confluence (%): 3.43%
[4]; [8]
  IC50: 180000 ± 6700 nM
[5]; HCT116, 24 hr
  effect on complex I-induced oxygen consumption: no apparent effects
[5]; HCT-116; 10 μM, 24 hr, HCT116; n = 4; read-out: Complex I activity (OCR, % of control)
  remaining activity at 10 µM: 84.7%
[5]; HCT-116; 30 μM, 24 hr, HCT116; n = 4; read-out: Complex I activity (OCR, % of control)
  remaining activity at 30 µM: 77%
[5]; HCT-116; 100 μM, 24 hr, HCT116; n = 4; read-out: Complex I activity (OCR, % of control)
  remaining activity at 100 µM: 87.9%
[5]; HCT-116; 150 μM, 24 hr, HCT116; n = 4; read-out: Complex I activity (OCR, % of control)
  remaining activity at 150 µM: 86.1%
[5]; HCT-116; 200 μM, 24 hr, HCT116; n = 4; read-out: Complex I activity (OCR, % of control)
  remaining activity at 200 µM: 86.5%
[5]; HCT-116; 250 μM, 24 hr, HCT116; n = 4; read-out: Complex I activity (OCR, % of control)
  remaining activity at 250 µM: 91.3%
[5]; HCT-116; 300 μM, 24 hr, HCT116; n = 4; read-out: Complex I activity (OCR, % of control)
  remaining activity at 300 µM: 85.7%
[5]; HCT-116; 400 μM, 24 hr, HCT116; n = 4; read-out: Complex I activity (OCR, % of control)
  remaining activity at 400 µM: 70.5%
[5]; HCT-116; 500 μM, 24 hr, HCT116; n = 4; read-out: Complex I activity (OCR, % of control)
  remaining activity at 500 µM: 82.1%
[5]; HCT-116; 1000 μM, 24 hr, HCT116; n = 4; read-out: Complex I activity (OCR, % of control)
  remaining activity at 1000 µM: 80.2%
[5]; HCT-116; 3000 μM, 24 hr, HCT116; n = 4; read-out: Complex I activity (OCR, % of control)
  remaining activity at 3000 µM: 83.1%
[5]; read-out: IC50 Complex I (FIG. 2); mean ± SD; HCT116, 24 hr treatment
  IC50: > 3000 µM
